According to the NIST ThermoML archive (doi:10.1021/je020189p):
Where “and” joins values, the source holds several entries; their conditions need not be identical. Identical values can stand only once.

[Br-].[Br-].[Br-].[Tb+3] [terbium tribromide]
Crystal
Conditions | vapor or sublimation pressure
904 K | 4.79e-05 kPa
908 K | 4.68e-05 kPa
912 K | 3.8e-05 kPa
915 K | 7.59e-05 kPa and 4.79e-05 kPa and 4.17e-05 kPa
917 K | 8.13e-05 kPa
920 K | 8.51e-05 kPa and 8.32e-05 kPa and 4.79e-05 kPa
921 K | 7.59e-05 kPa
922 K | 8.32e-05 kPa and 6.17e-05 kPa
924 K | 0.000105 kPa
925 K | 7.24e-05 kPa
928 K | 9.55e-05 kPa
930 K | 0.000132 kPa and 8.51e-05 kPa
931 K | 0.00012 kPa
933 K | 9.55e-05 kPa
934 K | 8.51e-05 kPa and 0.00012 kPa
935 K | 0.000151 kPa
937 K | 0.000123 kPa and 0.000138 kPa
939 K | 0.000151 kPa
940 K | 0.000182 kPa [middle of 4 runs]
941 K | 0.000115 kPa
943 K | 0.000141 kPa
944 K | 0.000209 kPa and 0.000186 kPa
945 K | 0.000186 kPa
947 K | 0.000214 kPa
948 K | 0.00024 kPa and 0.000141 kPa
950 K | 0.000182 kPa and 0.000166 kPa
954 K | 0.000295 kPa
955 K | 0.000191 kPa and 0.000269 kPa
956 K | 0.000229 kPa
957 K | 0.000331 kPa and 0.000229 kPa and 0.000275 kPa
958 K | 0.000331 kPa and 0.000288 kPa
960 K | 0.000363 kPa and 0.000316 kPa
962 K | 0.000347 kPa [middle of 4 runs]
964 K | 0.000288 kPa and 0.000389 kPa
968 K | 0.000295 kPa
969 K | 0.000363 kPa
970 K | 0.000501 kPa
971 K | 0.000355 kPa
973 K | 0.000537 kPa and 0.000501 kPa
974 K | 0.000575 kPa and 0.000355 kPa
975 K | 0.000427 kPa
976 K | 0.000501 kPa
977 K | 0.000427 kPa and 0.000575 kPa
978 K | 0.000617 kPa
980 K | 0.000427 kPa
981 K | 0.000661 kPa
983 K | 0.000537 kPa and 0.000741 kPa
988 K | 0.000871 kPa
989 K | 0.000832 kPa
990 K | 0.000912 kPa
991 K | 0.001 kPa
992 K | 0.00107 kPa
993 K | 0.00107 kPa and 0.001 kPa
999 K | 0.00115 kPa
1000 K | 0.00126 kPa
1002 K | 0.00132 kPa
1003 K | 0.00138 kPa
1004 K | 0.00148 kPa and 0.00158 kPa and 0.00129 kPa
1007 K | 0.00155 kPa
1012 K | 0.00174 kPa
1014 K | 0.00166 kPa and 0.00209 kPa
1015 K | 0.002 kPa and 0.00224 kPa
1019 K | 0.00257 kPa
1020 K | 0.00224 kPa
1024 K | 0.0024 kPa
1025 K | 0.00263 kPa and 0.00295 kPa
1030 K | 0.00295 kPa
1032 K | 0.00295 kPa
1035 K | 0.00331 kPa and 0.00417 kPa
1039 K | 0.00398 kPa
1042 K | 0.00537 kPa
1045 K | 0.00468 kPa
1047 K | 0.00575 kPa
1049 K | 0.00575 kPa
1051 K | 0.00676 kPa
1054 K | 0.00646 kPa
1058 K | 0.00708 kPa
1059 K | 0.00851 kPa and 0.00832 kPa
1064 K | 0.00912 kPa
1067 K | 0.01 kPa
1068 K | 0.011 kPa and 0.0115 kPa
1071 K | 0.0112 kPa
1076 K | 0.0141 kPa and 0.0129 kPa
1078 K | 0.0141 kPa
1085 K | 0.0182 kPa
1088 K | 0.0174 kPa and 0.0158 kPa
1099 K | 0.0229 kPa
1108 K | 0.0288 kPa

[Cl][Tb]([Cl])[Cl] [terbium trichloride]
Liquid
Conditions | vapor or sublimation pressure
921 K | 6.76e-05 kPa
931 K | 0.0001 kPa
937 K | 0.000135 kPa
942 K | 0.000209 kPa
943 K | 0.00017 kPa
946 K | 0.000166 kPa
950 K | 0.000204 kPa
953 K | 0.000219 kPa
957 K | 0.000331 kPa and 0.000245 kPa
961 K | 0.000288 kPa
965 K | 0.000302 kPa
967 K | 0.000331 kPa
971 K | 0.000501 kPa and 0.000372 kPa
975 K | 0.000407 kPa
976 K | 0.000331 kPa
979 K | 0.000447 kPa and 0.000331 kPa
980 K | 0.000501 kPa
984 K | 0.000537 kPa
988 K | 0.000832 kPa
990 K | 0.000661 kPa
992 K | 0.000501 kPa
994 K | 0.000708 kPa and 0.000741 kPa
995 K | 0.000501 kPa
998 K | 0.000794 kPa
999 K | 0.00107 kPa and 0.000912 kPa
1006 K | 0.00105 kPa and 0.000741 kPa
1009 K | 0.000741 kPa
1010 K | 0.00123 kPa and 0.00115 kPa
1011 K | 0.00148 kPa
1017 K | 0.00132 kPa [middle of 4 runs]
1020 K | 0.00158 kPa
1021 K | 0.00191 kPa
1024 K | 0.00166 kPa
1026 K | 0.00178 kPa
1027 K | 0.00123 kPa
1028 K | 0.00123 kPa
1029 K | 0.00209 kPa
1033 K | 0.00257 kPa
1034 K | 0.00214 kPa
1035 K | 0.00148 kPa
1037 K | 0.00251 kPa and 0.00158 kPa
1038 K | 0.00257 kPa
1043 K | 0.00263 kPa and 0.00191 kPa
1045 K | 0.00355 kPa
1047 K | 0.00331 kPa
1048 K | 0.00209 kPa
1053 K | 0.00447 kPa
1054 K | 0.00355 kPa and 0.00245 kPa
1056 K | 0.00372 kPa
1057 K | 0.00417 kPa
1058 K | 0.00263 kPa
1059 K | 0.00389 kPa
1064 K | 0.00575 kPa
1065 K | 0.00513 kPa
1067 K | 0.00372 kPa
1071 K | 0.00676 kPa and 0.00372 kPa
1072 K | 0.00525 kPa
1073 K | 0.00525 kPa
1075 K | 0.00617 kPa
1081 K | 0.00851 kPa
1082 K | 0.00537 kPa
1091 K | 0.00851 kPa
1092 K | 0.0112 kPa
1093 K | 0.00708 kPa
1102 K | 0.0141 kPa
1105 K | 0.00912 kPa
1117 K | 0.0117 kPa

[I][Tb]([I])[I] [terbium triiodide]
Crystal
Conditions | vapor or sublimation pressure
861 K | 1.91e-05 kPa
871 K | 2.82e-05 kPa
879 K | 3.31e-05 kPa
883 K | 4.27e-05 kPa
884 K | 3.8e-05 kPa and 5.01e-05 kPa
885 K | 5.01e-05 kPa
891 K | 4.79e-05 kPa
892 K | 6.17e-05 kPa
895 K | 7.08e-05 kPa
897 K | 6.61e-05 kPa and 5.75e-05 kPa
900 K | 0.0001 kPa
902 K | 9.12e-05 kPa
903 K | 7.59e-05 kPa
907 K | 0.000126 kPa
909 K | 0.000115 kPa and 9.55e-05 kPa
911 K | 0.000151 kPa
912 K | 0.000132 kPa
913 K | 0.000123 kPa
915 K | 0.000115 kPa
917 K | 0.000174 kPa
920 K | 0.000141 kPa
921 K | 0.0002 kPa
922 K | 0.000186 kPa
926 K | 0.000209 kPa
927 K | 0.000182 kPa and 0.000251 kPa
928 K | 0.000251 kPa
929 K | 0.000229 kPa
930 K | 0.00024 kPa
931 K | 0.000209 kPa
935 K | 0.00024 kPa
936 K | 0.000339 kPa
937 K | 0.000347 kPa
938 K | 0.000316 kPa
939 K | 0.000339 kPa
940 K | 0.000339 kPa and 0.000282 kPa
942 K | 0.000676 kPa
944 K | 0.000447 kPa
945 K | 0.000479 kPa
947 K | 0.000407 kPa and 0.000363 kPa
948 K | 0.000468 kPa and 0.000427 kPa
951 K | 0.00055 kPa
952 K | 0.001 kPa
953 K | 0.000447 kPa and 0.000603 kPa
955 K | 0.000955 kPa
958 K | 0.000661 kPa and 0.000631 kPa
959 K | 0.000692 kPa and 0.000741 kPa
961 K | 0.000776 kPa
963 K | 0.000661 kPa
964 K | 0.00135 kPa
966 K | 0.000891 kPa and 0.000955 kPa
967 K | 0.000912 kPa and 0.000977 kPa
971 K | 0.00105 kPa and 0.00166 kPa and 0.001 kPa
972 K | 0.00191 kPa and 0.0012 kPa
973 K | 0.00117 kPa and 0.00115 kPa and 0.000955 kPa
975 K | 0.00186 kPa
976 K | 0.00135 kPa
977 K | 0.00141 kPa
979 K | 0.00141 kPa
980 K | 0.00148 kPa and 0.00138 kPa
981 K | 0.00123 kPa
983 K | 0.00151 kPa and 0.0024 kPa
985 K | 0.00186 kPa
986 K | 0.00182 kPa and 0.0017 kPa
987 K | 0.00288 kPa and 0.00191 kPa
988 K | 0.00288 kPa and 0.00178 kPa and 0.00155 kPa
990 K | 0.00288 kPa
992 K | 0.00234 kPa
993 K | 0.00219 kPa
994 K | 0.00229 kPa and 0.00182 kPa
995 K | 0.0024 kPa and 0.00389 kPa
998 K | 0.00282 kPa [middle of 4 runs]
1001 K | 0.00282 kPa
1002 K | 0.0024 kPa
1003 K | 0.00288 kPa and 0.00501 kPa
1004 K | 0.00479 kPa and 0.00339 kPa
1005 K | 0.00479 kPa
1006 K | 0.00309 kPa
1008 K | 0.00339 kPa and 0.00389 kPa
1009 K | 0.00282 kPa and 0.0038 kPa
1012 K | 0.00575 kPa and 0.00676 kPa
1013 K | 0.00447 kPa
1015 K | 0.00437 kPa
1016 K | 0.00708 kPa
1017 K | 0.00525 kPa
1018 K | 0.00501 kPa
1019 K | 0.00759 kPa
1020 K | 0.00912 kPa
1021 K | 0.00617 kPa
1022 K | 0.0055 kPa
1026 K | 0.00661 kPa
1027 K | 0.00977 kPa
1028 K | 0.00955 kPa
1029 K | 0.00676 kPa and 0.0117 kPa and 0.00692 kPa
1033 K | 0.00813 kPa
1036 K | 0.0129 kPa
1037 K | 0.00891 kPa and 0.0132 kPa
1039 K | 0.0162 kPa
1043 K | 0.0162 kPa
1044 K | 0.0115 kPa
1049 K | 0.0195 kPa and 0.0204 kPa and 0.0224 kPa
1050 K | 0.0135 kPa
1057 K | 0.0245 kPa
1058 K | 0.0174 kPa
1059 K | 0.0263 kPa and 0.0309 kPa
1064 K | 0.0209 kPa and 0.0309 kPa
1066 K | 0.0316 kPa and 0.038 kPa
1070 K | 0.0263 kPa
1072 K | 0.0389 kPa
1077 K | 0.0324 kPa
1078 K | 0.0457 kPa
